According to publication PMC9960827, “Cloning and Characterization of Trypanosoma congolense and T. vivax Nucleoside Transporters Reveal the Potential of P1-Type Carriers for the Discovery of Broad-Spectrum Nucleoside-Based Therapeutics against Animal African Trypanosomiasis” (International Journal of Molecular Sciences, 2023):
Marks after values point to notes of the source that are not given here.

Assays:
TcoAT1 = assay type: cell-based, Trypanosoma congolense; details: for ΔG0: Gibbs free energy of binding, from Km or Ki
Procedure, shortened: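 Transporter genes were expressed in an L. mexicana line lacking NT1 and NT2 (SUPKO), and 1 × 10^7 cells in HEPES/bicarbonate buffer pH 7.3 took up radiolabeled permeant through an oil layer, with or without inhibitor. Uptake was stopped with ice-cold unlabeled substrate or by centrifugation, and pellets were counted. IC50 against radiolabeled adenosine was converted to Ki by Cheng–Prusoff using the permeant Km.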

[1] = test system: T. b. brucei P1 (TbP1/NT2); details: cited from earlier work
[2] = test system: T. congolense adenosine transporter; assay: [3H]-adenosine uptake and its inhibition in T. congolense IL3000 bloodstream forms; assay type: cell-based, Trypanosoma congolense; details: for ΔG0, Gibbs free energy of interaction: calculated from Km or Ki
Procedure, shortened: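 Bloodstream-form T. congolense IL3000 (1 × 10^7 cells) in HEPES/bicarbonate buffer pH 7.3 took up [3H]-adenosine over a set interval, with or without inhibitor, ending by ice-cold unlabeled substrate stop or centrifugation through oil. Pellet radioactivity gave IC50 by sigmoid fit; Ki followed by Cheng–Prusoff using adenosine Km.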

TvxNT3 = TvxNT3 (Trypanosoma vivax, UniProt F9WV62); assay: cell-based; assay type: cell-based
Source text: The information for the T. congolense adenosine transporter (TcoAT1) and four putative T. vivax nucleoside transporters was obtained in the TritrypDB (tritrypdb.org/tritrypdb) genome database. Primers were designed to flank each gene upstream of the 5′ end (forward) and downstream of the 3′ end (reverse) as described (primer sequences in Supplementary Table S2). Following amplification from the genomic DNA of T. congolense or T. vivax, DNA for each extracted gene was ligated into the pNUS-HcN expression vector doubly digested with NdeI using the NEBuilder kit according to the manufacturer’s instructions (New England Biolabs). Construct was transformed into competent E. coli cells, and ligation was confirmed by restriction enzyme digestion of isolated plasmid DNA followed by Sanger sequencing (Source BioScience, Nottingham, UK). Confirmed plasmids were then transfected into L. mexicana cell line in which both NT1 and NT2 were doubly knocked out (SUPKO) and derived from L. mexicana Cas9 [64] as described. Clones grown in medium containing 50 μg/mL neomycin (G418) were collected for further confirmation by PCR with genomic DNA using a forward primer of the transporter gene and a reverse primer of the plasmid.
Uptake assays using radiolabeled trypanocides and/or nucleosides were carried out as described previously. Briefly, parasite cultures were harvested, washed twice in assay buffer (33 mM HEPES, 98 mM NaCl, 4.6 mM KCl, 0.5 mM CaCl2, 0.07 mM MgSO4, 5.8 mM NaH3PO4, 0.03 mM MgCl2, 23 mM NaHCO3, 14 mM D-glucose, pH 7.3), then resuspended and adjusted to a density of 1 × 10^8 cells/mL in assay buffer. The radiolabeled permeant in the presence or absence of different concentrations of potential inhibitors reconstituted in 100 μL assay buffer was deposited on top of 250 μL oil mix in microcentrifuge tubes; 1 × 10^7 parasites in 100 μL assay buffer were added to the tube and incubated for a pre-determined interval. The reaction was stopped by the addition of 1 mL of a high concentration of ice-cold unlabeled substrate in assay buffer (‘stop solution’) and centrifugation, or by immediate centrifugation at […] as appropriate. The microcentrifuge tubes were flash-frozen, and the bottom of each tube containing the cell pellet was cut off and transferred to a scintillation vial. Cell pellets were lysed in 2% SDS, after which scintillation fluid (Scintlogic U, Lablogic) was added, followed by overnight incubation in the dark. Scintillation was measured in a 300SL (Hidex) scintillation counter (Hidex). All the assays were conducted in triplicate and analysis was carried out using Microsoft Excel and GraphPad Prism. All kinetic parameters were obtained on at least 3 separate occasions.
The dose-dependent uptake assay allowed for the affinity of nucleoside analogs to different nucleoside transporters to be determined by measuring the extent to which the analogs compete with and inhibit the uptake of radiolabel adenosine. This allowed for the determination of biochemical parameters such as Km and Vmax through the application of the Michaelis–Menten equation V0 = Vmax([substrate]/([substrate] + Km)). The 50% Inhibitory Concentration (IC50) of the purines and pyrimidines and their analogs was determined from non-linear regression to sigmoid curves with variable slope (Prism 8), and the IC50 of the inhibitor and the Km of the labeled permeant were then used to calculate the inhibition constant (Ki) of the analogs through the Cheng–Prusoff equation: Ki = IC50/(1 + (L/Km)), where L denotes the radiolabel concentration. The calculated Ki was in turn used to determine the Gibbs free energy (ΔG^0) of the inhibitor–transporter interaction using the equation: ΔG^0 = -RTln(Ki), where R represents the gas constant and T symbolizes the absolute temperature in Kelvin [104].

TbNT10 = test system: TbNT10; parameters: method as in Al-Salabi et al. [40]; details: called Km values; ref Al-Salabi et al. [40]; cited from earlier work
T. congolense 6C3 [3] = test system: T. congolense 6C3; parameters: method as in Hulpia et al. [38]; details: values marked *; ref Hulpia et al. [38]; cited from earlier work
T. congolense 6C3 [4] = assay: microbe, parasite or virus in culture; assay type: cell-based, Trypanosoma congolense; details: resistance factor = EC50 (test strain)/EC50(control strain)
Experimental: (§1) EC50 values were determined by plotting to an equation for a sigmoid curve with variable slope (GraphPad Prism 8). All values were the average of at least three independent determinations on different days.

T. congolense IL3000 = test system: T. congolense IL3000; parameters: method as in Hulpia et al. [38]; details: values marked *; ref Hulpia et al. [38]; cited from earlier work
[5] = Resazurin toxicity assay on human embryonic kidney cells; assay type: cell-based; details: human
Experimental: as §1

[6] = test system: human embryonic kidney (HEK) cells; assay: as above; assay type: cell-based
Experimental: as §1

BSF T. congolense = assay: Manual cell count of T. congolense cultures exposed to drug; assay type: cell-based, Trypanosoma congolense
Experimental: For the direct assessment of test compounds on parasite growth, a manual cell count of cultures grown in the presence or absence of test drugs was carried out to determine the effect of test drugs on the multiplication rate of the parasites as described. The cells were adjusted to the required density in 2 mL of the appropriate medium with or without the drug/compound of interest, in a 24-well plate, followed by incubation under standard conditions. The cells were then manually counted at intervals with a Neubauer cell chamber using a phase-contrast light microscope (Axioscope, Zeiss, Jena, Germany).

T.b.b. B48 = test system: T.b.b. B48; parameters: method as in Hulpia et al. [38]; details: compound marked *; ref Hulpia et al. [38]; cited from earlier work
T. vivax = test system: T. vivax; parameters: method as in Mabille et al. [69]; details: added for comparison only; ref Mabille et al. [69]; cited from earlier work
T. equiperdum = test system: T. equiperdum; parameters: method as in Hulpia et al. [38]; details: compound marked *; ref Hulpia et al. [38]; cited from earlier work
T. evansi = test system: T. evansi; parameters: method as in Hulpia et al. [38]; details: compound marked *; ref Hulpia et al. [38]; cited from earlier work
T. congolense IL3000 BSF = assay: Nucleus/kinetoplast configuration (DAPI) of T. congolense exposed to drug; assay type: cell-based, Trypanosoma congolense; details: 2× or 5× EC50, 8 h
Experimental: To assess the effect of the drug on the cellular morphology and configuration of nuclei and kinetoplasts, treated cells were collected after incubation period, fixed, DAPI-treated and viewed under an Olympus IX71 DeltaVision Core System microscope (Applied Precision, GE) using the SoftWoRx suite 2.0 software (Applied Precision, GE). At least 300 cells were scored per slide for the number of kinetoplasts (K) and nuclei (N) as 1N1K, 1N2K, 2N2K, MKMN (M = many) and ‘others’ (aberrant N/K distribution).

Chain of TvxNT3 (F9WV62 entry or part of it): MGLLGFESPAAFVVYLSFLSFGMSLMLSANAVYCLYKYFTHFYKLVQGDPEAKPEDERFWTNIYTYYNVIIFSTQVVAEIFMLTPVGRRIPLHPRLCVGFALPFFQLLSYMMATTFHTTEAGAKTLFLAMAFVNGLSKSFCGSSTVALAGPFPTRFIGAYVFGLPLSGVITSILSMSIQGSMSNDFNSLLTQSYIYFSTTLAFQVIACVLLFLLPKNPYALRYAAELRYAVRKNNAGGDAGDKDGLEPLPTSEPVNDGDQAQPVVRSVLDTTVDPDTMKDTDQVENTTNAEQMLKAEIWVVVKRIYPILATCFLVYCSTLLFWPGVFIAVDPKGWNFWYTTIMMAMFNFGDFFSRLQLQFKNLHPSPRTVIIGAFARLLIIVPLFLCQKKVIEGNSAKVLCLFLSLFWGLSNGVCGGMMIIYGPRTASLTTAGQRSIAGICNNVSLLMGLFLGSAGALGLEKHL

Nc1ncnc2c1ncn2[C@@H]1O[C@H](CO)[C@@H](O)[C@H]1O [Adenosine]
Km (TcoAT1; 0.05 µM [3H]-adenosine, 10 s incubation): 0.42 ± 0.03 µM | ΔG0 (TcoAT1): -8.7 kcal/mol | Km ([1]; T. b. brucei bloodstream forms, read-out: Tbb P1 Km for adenosine): 0.36 ± 0.05 µM | Tbb P1 ΔG0 [1]: -8.8 kcal/mol | Km ([2]; 0.05 µM [3H]-adenosine, 30 s incubation, bloodstream forms): 0.48 ± 0.03 µM | rate of adenosine uptake ([2]; 50 nM [3H]-adenosine, cultured IL3000): 0.014 ± 0.0037 pmol(10^7 cells)^−1s^−1 | Vmax of adenosine uptake ([2]; 30 s incubation): 0.11 ± 0.02 pmol(10^7 cells)^−1s^−1 | ΔG0, Gibbs free energy of interaction [2]: -8.6 kcal/mol | level of uptake of adenosine (TvxNT3; 50 nM [3H]-adenosine, SUPKO+TvxNT3): 3.9 × 10^−3 pmol(10^7 cells)^−1s^−1 | remaining activity at 100 µM (TvxNT3; read-out: [3H]-adenosine uptake remaining in presence of inhibitor): < 25% | Km (TbNT10): 0.41 µM

Nc1ncnc2c1c(Cl)cn2[C@@H]1O[C@H](CO)C[C@H]1O [FH8470, 7-chloro-7-deaza-3′-deoxyadenosine]
Ki (TcoAT1; 0.05 µM [3H]-adenosine, 10 s, IC50 converted to Ki, read-out: Ki on the transport of [3H]-adenosine): 60600 ± 10700 nM | ΔG0 (TcoAT1): -5.76 kcal/mol | EC50 (T. congolense 6C3 [3]): 0.66 ± 0.03 nM | Ki ([2]; 0.05 µM [3H]-adenosine, 30 s, IC50 converted to Ki, read-out: Ki on the transport of [3H]-adenosine): 17500 ± 3400 nM | ΔG0, Gibbs free energy of interaction [2]: -6.48 kcal/mol | T. congolense 6C3 RF (T. congolense 6C3 [4]): 0.53 ^a | EC50 (T. congolense IL3000): 1.2 ± 0.2 nM | EC50 [5]: 12000 ± 320 nM | SI T. congolense ([6]; selectivity index = EC50 (HEK cells)/EC50 (T. congolense)): 9800 | SI T. equiperdum ([6]; selectivity index = EC50 (HEK cells)/EC50 (T. equiperdum)): 21,100 | SI T. evansi ([6]; selectivity index = EC50 (HEK cells)/EC50 (T. evansi)): 6830 | time to killing of the parasites (BSF T. congolense; 5 × EC50, exposure for 48 h or continuously): ≤ 72 h | time to death of the cells (BSF T. congolense; 15 × EC50, short exposure (8 h), washed out or continuous): ≤ 48 h | EC50 (T.b.b. B48): 6.8 ± 0.9 nM | EC50 (T. vivax): 96 ± 82 nM | EC50 (T. equiperdum): 0.57 ± 0.08 nM | EC50 (T. evansi): 1.8 ± 0.2 nM | reduction of the number of cells with 2N2K configuration (T. congolense IL3000 BSF): 40–50 % of untreated control
